Laboratory results: patent publication US12606508B2, “Cannabis extracts and uses thereof” (priority 2020, dated 2026)
Entries after “also recorded” stand apart in the source; their conditions may differ.

Assays:
Assay type in all cases: in vivo
CD-1 mice = assay: Formalin test in mice; settings: 3 mg/kg, i.p., 20 min before formalin; n=5
Description: Formalin test in mice. Male CD-1 mice 6-8 weeks (Envigo, Italy), were housed under controlled conditions (12 h light/12 h dark cycle; temperature 20-22 C; humidity 55-60%) with chow and tap water available ad libitum. All surgeries and experimental procedures were approved by the Animal Ethics Committee of University of Campania “L. Vanvitelli” (Naples). Animal care was in compliance with Italian (D.L. 116/92) and European Commission (O.J. of E.C. L358/1 18/12/86) regulations on the protection of laboratory animals. All efforts were made to minimize animal suffering and to reduce the number of animals used. All the experiments were performed in a randomized manner by the same operator blind to pharmacological treatments. Mice weighing 28-32 g were used after 1 week-acclimation period and received formalin (1.25% in saline, 30 μL) in the dorsal surface of one side of the hind-paw. Each mouse, randomly assigned to one of the experimental groups (n=5), was placed in a plexiglass cage and allowed to move freely for 15-20 min. A mirror was placed at a 45° angle under the cage to allow full view of the hind-paws. Lifting, favoring, licking, shaking and flinching of the injected paw were recorded as nocifensive behavior.^61 The total time of the nociceptive response was measured every 5 min for 60 minutes and expressed in min (mean±SEM). Mice received vehicle (0.5% DMSO in saline) or different doses of Δ^9-THCB (2, 3 and 5 mg/kg, i.p.) 20 min before formalin injection alone or in combination with AM251 (0.5 mg/kg, i.p.) or AM630 (1 mg/kg, i.p.). The antagonists were administered 10 min before drugs injection.
Statistics for in vivo experiments. Data are represented as means±standard error of the mean (S.E.M). Statistical analysis of the data was performed by analysis of variance two-way ANOVA followed by Bonferroni post hoc or Dunnett's multiple comparison test. All statistical analyses were performed by using GraphPAD software (San Diego, California). Differences were considered significant at p<0.05.

C57BL6/J mice [1] = assay: Tetrad: open field test (spontaneous/motor activity); settings: mean±SEM
Description: (§1) Mice (n=4) were treated with Δ^9-THCB (10 and 20 mg/kg) or vehicle (0.9% saline and 0.05% DMSO) by intraperitoneal (i.p.) administration. Mice were evaluated for hypomotility (open field test), hypothermia (body temperature test), antinociceptive (hot plate test), and cataleptic effects (bar test), using the tetrad tests as described in the protocol by Metna-Laurent M. et al.^62 Statistical analysis was performed using the Kruskall-Wallis test and Dunn's post hoc tests.
Open field test. The open field test (OFT) was performed 30 min after drug or vehicle injection. The apparatus was cleaned before each test using a 70% EtOH solution. After randomly assigning naïve mice to a treatment group, the operator started to record animal behaviors, which were stored and analyzed using an automated behavioral tracking system (Smart v3.0, Panlab Harvard Apparatus). Mice were placed in an OFT arena (1×w×h: 44 cm×44 cm×30 cm), and ambulatory activity (total distance travelled in cm), was recorded for 15 min and analyzed.
(§2) Male C57BL6/J mice (7 weeks old; n=5) were treated with Δ^9-THCP (10, 5 and 2.5 mg/kg) or vehicle (1:1:18; ethanol:Kolliphor EL:0.9% saline) by i.p. administration. Mice were evaluated for hypomotility (open field test), hypothermia (body temperature), antinociceptive (hot plate test), and cataleptic (bar test) effects, using the tetrad tests^58. Statistical analysis was performed using the Kruskall-Wallis test and Dunn's post hoc tests.
Openfield. The open field test was used for the evaluation of motor activity. Behavioral assays were performed 30 min after drug (or vehicle) injection. The apparatus was cleaned before each behavioral session by solution of 70% ethanol. Naïve mice were randomly assigned to a treatment group. Behaviors were recorded, stored, and analyzed using an automated behavioral tracking system (Smart v3.0, Panlab Harvard Apparatus). Mice were placed in an OFT arena (1×w×h: 25 cm×25 cm), and ambulatory activity (total distance travelled in centimeter), were recorded for 15 minutes and analyzed.

C57BL6/J mice [2] = assay: Tetrad: hot plate test (analgesia); settings: 52° C., 85 min after administration, mean±SEM
Description: as §1
Hotplate test. Each mouse was placed on a hot plate (Ugo Basile), which was kept at a constant temperature of 52° C. The nociceptive response (NR) was recorded as characteristic actions of the mouse like licking of the hind paws, as well as jumping. The latency to the NR was measured in sec 85 minutes after drug or vehicle administration. A 30 or 60 sec cut-off time was used in order to prevent tissue damage.
as §2
Hot plate. Changes in nociception were evaluated by the hot plate test. On the day of experiment each mouse was placed on a hot plate (Ugo Basiele) at a constant temperature of 52° C. Licking of the hind paws, as well as jumping, were considered as a nociceptive response (NR) and the latency was measured in seconds 85 minutes after drug or vehicle administration. The latency to the NR was recorded and a 30 or 60 s cut-off time was used in order to prevent tissue damage.

C57BL6/J mice [3] = assay: Tetrad test, overall cannabimimetic profile; settings: i.p.
Description: Tetrad test. Male C57BL6/J mice 6-8 weeks (Envigo, Italy) were housed under controlled conditions (12 h light/12 h dark cycle; temperature 20-22 C; humidity 55-60%) with chow and tap water available ad libitum. All surgeries and experimental procedures were approved by the Animal Ethics Committee of University of Campania “L. Vanvitelli,” Naples. Animal care was in compliance with Italian (D.L. 116/92) and European Commission (O.J. of E.C. L358/1 […]) regulations on the protection of laboratory animals. All efforts were made to minimize animal suffering and to reduce the number of animals used. All the experiments were performed in a randomized manner by the same operator blind to pharmacological treatments.
as §1, §2

Row | Structure (SMILES) | nociceptive response in formalin test (first phase 0-7 min, second phase 15-60 min) (CD-1 mice) | open field: distance travelled (C57BL6/J mice [1]; Δ^9-THCB 10 mg/kg i.p., 30 min after injection, 15 min, n=4, vehicle 3283) | open field: distance travelled (C57BL6/J mice [1]; Δ^9-THCB 20 mg/kg i.p., 30 min after injection, 15 min, n=4, vehicle 3283) | hot plate: latency to nociceptive response (C57BL6/J mice [2]; Δ^9-THCB 10 mg/kg i.p., n=4, vehicle 10.15) | hot plate: latency to nociceptive response (C57BL6/J mice [2]; Δ^9-THCB 20 mg/kg i.p., n=4, vehicle 10.15) | cannabimimetic profile in the tetrad test (in words) (C57BL6/J mice [3]) | open field: distance travelled (C57BL6/J mice [1]; Δ^9-THCP 2.5 mg/kg i.p., n=5, vehicle 6888) | open field: distance travelled (C57BL6/J mice [1]; Δ^9-THCP 5 mg/kg i.p., n=5, vehicle 6888) | open field: distance travelled (C57BL6/J mice [1]; Δ^9-THCP 10 mg/kg i.p., n=5, vehicle 6888) | hot plate: latency to nociceptive response (C57BL6/J mice [2]; Δ^9-THCP 2.5 mg/kg i.p., not statistically significant, n=5, vehicle 19.20) | hot plate: latency to nociceptive response (C57BL6/J mice [2]; Δ^9-THCP 5 mg/kg i.p., n=5, vehicle 19.20) | hot plate: latency to nociceptive response (C57BL6/J mice [2]; Δ^9-THCP 10 mg/kg i.p., n=5, vehicle 19.20) | dose at which active in three of the four tetrad tests (C57BL6/J mice [3])
1 | CCCCc1cc(O)c2c(c1)OC(C)(C)[C@@H]1CCC(C)=C[C@@H]21 [Δ^9-THCB, (6aR,10aR)-3-butyl-6,6,9-trimethyl-6a,7,8,10a-tetrahydro-6H-benzo[c]chromen-1-ol] | reduced both first and second phase of formalin test | 3220 cm | 3591 cm | 7.94 s | 17.50 s | partial agonistic activity; also recorded: partial agonist for CB1 receptor | – | – | – | – | – | – | –
2 | CCCCCCCc1cc(O)c2c(c1)OC(C)(C)[C@@H]1CCC(C)=C[C@@H]21 [Δ^9-THCP, (6aR,10aR)-3-heptyl-6,6,9-trimethyl-6a,7,8,10a-tetrahydro-6H-benzo[c]chromen-1-ol] | – | – | – | – | – | THC-like cannabimimetic activity; also recorded: miming the properties of full CB1 receptor agonists | 4072 cm | 127.5 cm | 166.8 cm | 40.22 s | 54.38 s | 57.0 s | 5 mg/kg
